Measured values from BindingDB's records for doi:10.1021/bi3009278 (University of Wisconsin, 2012).

Target: Lysine-specific demethylase 5A (Homo sapiens, UniProt P29375)
Assay: Fluorescence Polarization Binding Assay

Sequence of Lysine-specific demethylase 5A (P29375 whole entry): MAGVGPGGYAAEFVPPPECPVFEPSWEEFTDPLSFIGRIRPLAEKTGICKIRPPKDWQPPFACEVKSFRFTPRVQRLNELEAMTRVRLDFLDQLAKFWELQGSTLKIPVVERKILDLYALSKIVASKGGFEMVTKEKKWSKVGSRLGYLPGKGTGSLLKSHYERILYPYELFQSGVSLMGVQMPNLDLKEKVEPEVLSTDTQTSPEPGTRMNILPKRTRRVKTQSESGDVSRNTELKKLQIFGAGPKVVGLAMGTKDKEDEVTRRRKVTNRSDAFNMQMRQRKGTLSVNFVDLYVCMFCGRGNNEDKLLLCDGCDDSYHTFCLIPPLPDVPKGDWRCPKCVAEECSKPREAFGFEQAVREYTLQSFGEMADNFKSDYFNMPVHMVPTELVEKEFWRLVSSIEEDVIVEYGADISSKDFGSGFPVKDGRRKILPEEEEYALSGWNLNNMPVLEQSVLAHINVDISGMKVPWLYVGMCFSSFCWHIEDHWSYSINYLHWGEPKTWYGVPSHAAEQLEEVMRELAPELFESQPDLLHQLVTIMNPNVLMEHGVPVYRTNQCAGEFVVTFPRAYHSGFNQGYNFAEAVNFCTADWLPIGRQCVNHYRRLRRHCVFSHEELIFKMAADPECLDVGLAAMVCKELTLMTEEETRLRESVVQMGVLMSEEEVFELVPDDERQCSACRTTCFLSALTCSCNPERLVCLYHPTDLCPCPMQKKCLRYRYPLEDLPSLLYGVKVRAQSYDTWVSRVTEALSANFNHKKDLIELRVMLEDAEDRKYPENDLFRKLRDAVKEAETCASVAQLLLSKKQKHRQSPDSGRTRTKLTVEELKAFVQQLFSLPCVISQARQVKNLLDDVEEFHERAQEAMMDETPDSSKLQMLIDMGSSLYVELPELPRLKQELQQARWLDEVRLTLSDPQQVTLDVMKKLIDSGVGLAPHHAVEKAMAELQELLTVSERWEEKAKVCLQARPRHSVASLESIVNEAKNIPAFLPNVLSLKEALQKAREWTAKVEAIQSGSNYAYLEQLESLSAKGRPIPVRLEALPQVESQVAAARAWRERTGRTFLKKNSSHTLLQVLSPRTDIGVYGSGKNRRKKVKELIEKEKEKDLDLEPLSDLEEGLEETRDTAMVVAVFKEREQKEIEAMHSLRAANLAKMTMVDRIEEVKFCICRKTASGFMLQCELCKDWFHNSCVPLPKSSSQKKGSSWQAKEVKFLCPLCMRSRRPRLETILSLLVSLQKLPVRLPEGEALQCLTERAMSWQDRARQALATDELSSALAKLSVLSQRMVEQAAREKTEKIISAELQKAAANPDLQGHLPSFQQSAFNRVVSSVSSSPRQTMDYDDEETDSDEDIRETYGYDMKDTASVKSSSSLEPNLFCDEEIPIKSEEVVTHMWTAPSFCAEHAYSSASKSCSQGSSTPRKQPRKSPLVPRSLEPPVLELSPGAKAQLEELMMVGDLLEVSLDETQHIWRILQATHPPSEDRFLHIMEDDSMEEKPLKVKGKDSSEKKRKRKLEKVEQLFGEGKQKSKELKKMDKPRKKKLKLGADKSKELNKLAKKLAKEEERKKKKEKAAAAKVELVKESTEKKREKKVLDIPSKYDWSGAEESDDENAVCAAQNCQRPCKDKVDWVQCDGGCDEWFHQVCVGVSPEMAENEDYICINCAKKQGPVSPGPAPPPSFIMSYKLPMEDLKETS

SMILES	IC50
CCCCc1oc2ccccc2c1C(=O)c1cc(I)c(OCC[N+](C)(C)C)c(I)c1 [WAG-003]	30 µM
CCCCc1oc2ccccc2c1C(=O)c1cc(I)c(OCCN)c(I)c1 [Di-N-desethylaminodarone]	26 µM
